Source: ChEMBL document CHEMBL4420061, “Compositions and methods of inhibiting retinal degeneration” (2013)
The source made the active and inactive calls. The calls are words filed in the database; no cut-off is given here.

Legend:
Rattus norvegicus [1] = test: Protection against light-induced retinal degeneration in Sprague-Dawley rat assessed as suppression of light-induced retinal structure loss at 50 mg/kg, ip dosed 0.5 hrs after 6 hrs light exposure and measured 7 days after light-exposure by electroretinography; assay type: functional, organism-based
Rattus norvegicus [2] = test: (§1) Protection against light-induced retinal degeneration in Sprague-Dawley rat assessed as suppression of light-induced retinal function loss by measuring Rod-a and b-wave responses at 50 mg/kg, ip dosed 0.5 hrs before 6 hrs light exposure and measured 7 days after light-exposure by electroretinography; assay type: functional, organism-based
[3] = target: T1, Retinoid isomerohydrolase (Rattus norvegicus) (UniProt O70276); test: Inhibition of RPE65 in rat RPE microsomes assessed as reduction in isomero-hydrolase activity by measuring 11-cis-retinol generation using all-trans-[3H]-retinol by HPLC analysis
T1 sequence (whole entry): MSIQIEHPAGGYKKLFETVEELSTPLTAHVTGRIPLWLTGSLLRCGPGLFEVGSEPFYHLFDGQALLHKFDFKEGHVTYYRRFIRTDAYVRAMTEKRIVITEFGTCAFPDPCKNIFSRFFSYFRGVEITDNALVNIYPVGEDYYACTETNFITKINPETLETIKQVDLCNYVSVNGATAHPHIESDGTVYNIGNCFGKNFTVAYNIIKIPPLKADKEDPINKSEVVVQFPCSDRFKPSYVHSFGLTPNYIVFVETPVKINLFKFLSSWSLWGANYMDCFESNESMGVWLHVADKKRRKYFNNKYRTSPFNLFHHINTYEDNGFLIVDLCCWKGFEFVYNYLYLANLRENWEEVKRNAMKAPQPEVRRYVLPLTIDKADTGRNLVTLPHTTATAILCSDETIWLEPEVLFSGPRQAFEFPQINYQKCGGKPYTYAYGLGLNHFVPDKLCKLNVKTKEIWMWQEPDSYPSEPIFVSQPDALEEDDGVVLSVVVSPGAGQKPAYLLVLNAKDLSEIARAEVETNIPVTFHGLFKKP

Mus musculus [4] = test: Inhibition of rhodopsin regeneration in completely light-adapted mouse BALB/c mouse assessed as rhodopsin recovery level by measuring effect on rhodopsin content at 5% dosed to eyes via eye drop before dark adaptation for 1 hr by spectrophotometry (reference value: 78.83%); assay type: functional; set-up: scale not given: the % may be the effect or the level left
Rattus norvegicus [5] = test: as §1, with “preservation of cone function” for “Rod-a and b-wave responses”, “0.5 to 12” for “0.5”; assay type: functional, organism-based
Rattus norvegicus [6] = test: as §1, with “preservation of cone function” for “Rod-a and b-wave responses”, “16 to 24” for “0.5”; assay type: functional, organism-based
Rattus norvegicus [7] = test: Protection against light-induced retinal degeneration in Sprague-Dawley rat assessed as suppression of light-induced retinal function loss by measuring Rod-a and b-wave responses at 50 mg/kg, ip dosed 0.5 hrs after 6 hrs light exposure and measured 7 days after light-exposure by electroretinography; assay type: functional, organism-based
Rattus norvegicus [8] = test: Protection against light-induced retinal degeneration in Sprague-Dawley rat assessed as suppression of light-induced retinal function loss by measuring preservation of cone function at 50 mg/kg, ip dosed after 6 hrs light exposure and measured 7 days after light-exposure by electroretinography; assay type: functional, organism-based
Rattus norvegicus [9] = test: Protection against light-induced retinal degeneration in Sprague-Dawley rat assessed as suppression of light-induced retinal structure loss at 50 mg/kg, ip dosed 0.5 hrs before 6 hrs light exposure and measured 7 days after light-exposure by electroretinography; assay type: functional, organism-based
Rattus norvegicus [10] = test: Protection against light-induced retinal degeneration in Sprague-Dawley rat assessed as photoreceptor levels in central and superior retina at 50 mg/kg, ip dosed 0.5 hrs before 6 hrs light exposure relative to control; assay type: functional
Rattus norvegicus [11] = test: Inhibition of rhodopsin regeneration in overnight dark-adaptated Sprague-Dawley rat assessed as effect on rhodopsin recovery by measuring rhodopsin content at 50 mg/kg, ip followed by exposure to room light for 2 hrs and measured 2.5 hrs after photo-bleach by spectrophotometry; assay type: functional, organism-based
Rattus norvegicus [12] = test: Protection against light-induced retinal degeneration in overnight dark-adaptated Sprague-Dawley rat assessed as protection of retinal rod function by measuring effect on A-waves at 50 mg/kg, ip dosed 30 mins prior to exposure to 4 log cd.s/m2 test flash by electroretinography relative to control; assay type: functional
[13] = Drug level in posterior eye cup of completely light-adapted mouse BALB/c mouse at 10% dosed to eyes via eye drop for 3 times at 6, 3 and 0 hrs before dark adaptation for 1 hr by mass spectrometry; assay type: ADME, organism-based; details: in vivo, topical_or_ocular
Rattus norvegicus [14] = test: (§2) Inhibition of rhodopsin regeneration in overnight dark-adaptated Sprague-Dawley rat assessed as effect on rhodopsin recovery by measuring rhodopsin content at 50 mg/kg, ip followed by exposure to room light for 2 hrs and measured 3 hrs after photo-bleach by spectrophotometry (reference value: 100%); assay type: functional; set-up: scale not given: the % may be the effect or the level left
Rattus norvegicus [15] = test: as §1, with “16 to 24” for “0.5”; assay type: functional, organism-based
Rattus norvegicus [16] = test: as §1, with “up to 12” for “0.5”; assay type: functional, organism-based
Mus musculus [17] = test: Protection against light-induced retinal degeneration in BALB/c mouse assessed as suppression of light-induced retinal rod function loss at 10% topical application dosed 0.5 hrs before 6 hrs light exposure and measured 5 days after light-exposure by electroretinography; assay type: functional, organism-based
Mus musculus [18] = test: Inhibition of rhodopsin regeneration in completely light-adapted mouse BALB/c mouse assessed as effect on rhodopsin content at 10% dosed to eyes via eye drop followed by mouse moving to dark for 1 hr by spectrophotometry; assay type: functional, organism-based
Rattus norvegicus [19] = test: Protection against light-induced retinal degeneration in Sprague-Dawley rat assessed as suppression of light-induced retinal structure loss at 50 mg/kg, ip dosed up to 12 hrs before 6 hrs light exposure and measured 7 days after light-exposure by electroretinography; assay type: functional, organism-based
Mus musculus [20] = test: Inhibition of rhodopsin regeneration in completely light-adapted mouse BALB/c mouse assessed as effect on rhodopsin content at 10% dosed to eyes via eye drop for 3 times at 6, 3 and 0 hrs before dark adaptation for 1 hr by spectrophotometry; assay type: functional, organism-based
[21] = target: T2, Lecithin retinol acyltransferase (Rattus norvegicus) (UniProt Q9JI61); test: Inhibition of LRAT in rat RPE microsomes assessed as reduction in retinyl-ester at 1 mM using all-trans-[3H]-retinol by HPLC analysis
T2 sequence (whole entry): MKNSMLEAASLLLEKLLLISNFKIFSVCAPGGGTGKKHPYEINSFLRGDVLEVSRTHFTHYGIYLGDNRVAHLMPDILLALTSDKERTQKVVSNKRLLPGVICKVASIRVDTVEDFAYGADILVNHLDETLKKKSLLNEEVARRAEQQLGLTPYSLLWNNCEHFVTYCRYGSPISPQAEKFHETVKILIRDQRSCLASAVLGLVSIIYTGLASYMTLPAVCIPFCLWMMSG

[22] = target: T1, Retinoid isomerohydrolase (Rattus norvegicus); test: Inhibition of RPE65 in rat RPE microsomes assessed as reduction in isomero-hydrolase activity by measuring 11-cis-retinol generation at 1 mM using all-trans-[3H]-retinol by HPLC analysis
Rattus norvegicus [23] = test: as §2, with “45 mins” for “3 hrs”; assay type: functional; set-up: scale not given: the % may be the effect or the level left
Rattus norvegicus [24] = test: Protection against light-induced retinal degeneration in Sprague-Dawley rat assessed as suppression of light-induced retinal structure loss at 50 mg/kg, ip dosed 16 to 24 hrs before 6 hrs light exposure and measured 7 days after light-exposure by electroretinography; assay type: functional, organism-based
Rattus norvegicus [25] = test: Effect on cone function in Sprague-Dawley rat at 50 mg/kg, ip under steady rod-suppressing background illumination 60 mins post compound dosing by single- and flicker-flash ERG recordings based assay; assay type: functional, organism-based
Baboon = test: Inhibition of rhodopsin regeneration in anesthetized baboon assessed as rhodopsin regeneration by measuring rhodopsin content in eye at 10 mg/ml dosed as two drops for every 15 minutes for 1.75 hrs by spectrophotometry (reference value: 100%); assay type: functional, Papio; set-up: scale not given: the % may be the effect or the level left
Mus musculus [26] = test: Inhibition of rhodopsin regeneration in completely light-adapted mouse BALB/c mouse assessed as effect on rhodopsin content at 10% dosed to eyes via eye drop for 2 times at 3 and 0 hrs before dark adaptation for 1 hr by spectrophotometry; assay type: functional, organism-based
Mus musculus [27] = species on record: Mus musculus; test: Inhibition of retinal RDH activity in mouse retinal microsomes assessed as effect on NADPH-dependent reduction of all-trans-retinal; details: Retina
[28] = Drug level in […] in anesthetized baboon assessed per mg wet weight at 10 mg/ml dosed as two drops for every 15 minutes for 1.75 hrs by mass spectrometry; assay type: ADME, organism-based, Papio; details: in vivo, topical_or_ocular

Row | inhibition [3] | SMILES | Activity (Rattus norvegicus [1]) | Activity (Rattus norvegicus [2]) | Activity (Rattus norvegicus [5]) | Activity (Rattus norvegicus [6]) | Activity (Rattus norvegicus [7]) | Activity (Rattus norvegicus [8]) | Activity (Rattus norvegicus [9]) | Activity (Rattus norvegicus [10]) | inhibition (Rattus norvegicus [11]) | other results
1 | inactive | CC(C)(C)/[N+]([O-])=C/c1ccccc1S(=O)(=O)[O-].[Na+] | inactive | inactive | inactive | inactive | inactive | inactive | inactive | – | – | Activity (Mus musculus [4]): 84.64%
2 | – | Cc1ccc(/C=[N+](\[O-])C(C)(C)C)cc1 | – | – | – | – | – | – | – | Active | Active | –
3 | – | CC(C)(C)/[N+]([O-])=C/c1ccc(F)cc1 | – | – | – | – | – | – | – | Active | Active | –
4 | – | CC(C)(C)/[N+]([O-])=C/c1ccc(C(F)(F)F)cc1 | – | – | – | – | – | – | – | Active | Active | Activity (Rattus norvegicus [12]): 804%
5 | Dose-dependent effect | CC(C)(C)/[N+]([O-])=C/c1ccccc1 | inactive | Active | Active | inactive | inactive | inactive | Active | 90% | Active | Drug uptake [13]: Active; Activity (Rattus norvegicus [14]): 0%; Activity (Rattus norvegicus [15]): inactive; Activity (Rattus norvegicus [16]): Active; Activity (Mus musculus [17]): Active; inhibition (Mus musculus [18]): Active; Activity (Rattus norvegicus [19]): Active; inhibition (Mus musculus [20]): Active; inhibition [21]: inactive; inhibition [22]: 100%; Activity (Rattus norvegicus [23]): 0%; Activity (Rattus norvegicus [24]): inactive; Activity (Rattus norvegicus [25]): inactive; Activity (Baboon): 26 - 36%; inhibition (Mus musculus [26]): Active; inhibition (Mus musculus [27]): inactive; Drug uptake [28]: 23.5 to 24.2 ng
